From patent US5714479A, “Endothelin antagonistic heteroaromatic ring-fused cyclopentene derivatives” (Banyu Pharmaceutical Co., Ltd., priority 1993, dated 1998)

Columns and labels:
[1] = tested on: isolated porcine coronary arteries; test: Activities against endothelin-induced contraction of isolated porcine coronary arteries; set-up: species or system pig
Protocol: Activities against endothelin-induced contraction of isolated porcine coronary arteries
(§1) The coronary artery of pig was extracted, and a spiral preparation having a width of 1 mm and a length of 10 mm was prepared therefrom. The preparation having the endothelial cells denuded, was hanged in a 5 ml organ bath filled with a Krebs.Heneseleit solution saturated with a gas mixture of 95% O2 and 5% CO2, and a change in the tension was isometrically measured and recorded.
(§2) Endothelin-1 was added into the organ bath in a cumulatively increasing manner, whereby the influence of a compound of the present invention to the concentration-response curve for endothelin-1 was examined. The compound was added into the organ bath 20 minutes prior to the addition of endothelin-1.

[2] = tested on: isolated rabbit iliac arteries; test: Activities against endothelin-induced contraction of isolated rabbit iliac arteries
Protocol: Activities against endothelin-induced contraction of isolated rabbit iliac arteries
as §1, with “iliac” for “coronary”, “rabbit” for “pig”, “isolated,” for “extracted,”, “placed” for “hanged”, “Krebs.Henseleit” for “Krebs.Heneseleit”
as §2

ETA receptor = test: Endothelin binding inhibition test to ETA receptor (porcine aorta smooth muscle membranes, 125I-endothelin-1); conditions: at 1.1 μM
Protocol: Endothelin binding inhibition test to ETA receptor
(§3) The smooth muscle tissue of porcine aorta was homogenized in a buffer solution of 10 mM MOPS, pH 7.4, at 4° C. by a polytron. To the homogenate, sucrose was added to a concentration of 20%, and the mixture was centrifuged at 1,000×g for 15 minutes, and the supernatant was further centrifuged at 10,000×g for 15 minutes. The supernatant thereof was further centrifuged at 90,000×g for 40 minutes. The membrane precipitate thereby obtained was suspended in a buffer solution of 5 mM HEPES/Tris, pH 7.4, at a concentration of 25 mg/ml.
(§4) Then, 16 μl of this membrane suspension was added to 340 μl of 50 mM tris/HCl buffer, pH 7.4, containing […] calcium chloride, 10 μM magnesium chloride, 0.1 mM PMSF, 1 μM pepstatin A, 2 μM leupeptin, 1 mM 1,10-phenanthroline and 0.1% bovine serum albumin. To this suspension, 4 μl of (A) endothelin-1 (for nonspecific binding; 0.2 μM as the final concentration), (B) buffer solution A (for total control binding), or (C) a test compound (1.1 μM as the final concentration), was added. Further, to each suspension, 40 μl of ^125 I-endothelin-1 (12000-18000 cpm) was added. […] Then, the radioactivity trapped by the glass filter was measured, and the ^125 I-endothelin-1 binding inhibition D (%) at 1.1 μM of the test compound was determined by the following equation. […]

ETB receptor = test: Endothelin binding inhibition test to ETB receptor (porcine cerebellum membranes, 125I-endothelin-1); conditions: at 1.1 μM
Protocol: Endothelin binding inhibition test to ETB receptor
as §3, with “cerebellum” for “smooth muscle tissue”, “porcine” for “porcine aorta”, “3.3” for “25”
as §4

human ETA receptor = test: Endothelin binding inhibition test to human ET receptor (ETA); conditions: 1.1 μM; human cell membranes (SK-N-MC or Girardi heart cells)
Protocol: (§5) Endothelin binding inhibition test to human ET receptor
(§6) The human neuroblastoma SK-N-MC cells or the human Girardi heart cells purchased from Dainippon Seiyaku (Japan) were cultured in minimal essential medium supplemented with fetal calf serum. The cells were collected and homogenized in 10 mM MOPS buffer (pH 7.4) containing 154 mM NaCl, 10 mM KCl, 0.8 mM CaCl2 and 20% sucrose at 4° C. using a polytron homogenizer. The homogenate was then centrifuged at 1,000×gfor 15 minutes. The supernatant was centrifuged at 100,000×g for 1 hour at 4° C. Then the pellet was washed with 5 mM Hepes/Tris buffer (pH 7.4). The resulting membranes were incubated with [^125 I]endothelin-1 in the presence of each test compound or vehicle (1% dimethyl sulfoxide) in 50 mM Tris/HCl buffer (pH 7.4) containing 0.1 mM phenylmethanesulfonyl fluoride, 1 μM pepstatin, 2 μM leupeptin, 1 mM 1,10-phenanthroline, 1 mM EDTA, 10 μM CaCl2, 10 μM MgCl2 and 0.1% BSA in a total volume of 0.4 ml. After 4 hours incubation, cold 5 mM Hepes/Tris buffer (pH 7.4) containing 0.3% BSA (Buffer A) was added to the mixture. Free and bound [^125 I]endothelin-1 were separated by filtration using Whatman GF/C glass fiber filters. After the filtration, the filters were washed with buffer A, and the radioactivity on the filters was measured in a γ counter. Nonspecific binding was determined in the presence of 200 nM endothelin-1. […]

human ETB receptor = test: Endothelin binding inhibition test to human ET receptor (ETB); conditions: 1.1 μM; human cell membranes (SK-N-MC or Girardi heart cells)
Protocol: as §5, §6

[3] = 0.1 to 10 μM, rabbit iliac artery

SMILES | effect on the isolated artery when applied alone [1] | influence on the concentration-response curve for endothelin-1 ([1]; 10 μM, added 20 minutes prior to endothelin-1, porcine coronary artery) | effect on maximum response to endothelin-1 ([1]; 10 μM, porcine coronary artery) | effect on the isolated artery when applied alone [2] | effect on maximum response to endothelin-1 [2, 3] | influence on the concentration-response curve for endothelin-1 [2, 3] | 125I-endothelin-1 binding inhibition D (%) to ETA (ETA receptor) [%] | 125I-endothelin-1 binding inhibition D (%) to ETB (ETB receptor) [%] | Percent (%) inhibition of [125I]ET-1 specific binding to ETA (human ETA receptor) [%] | Percent (%) inhibition of [125I]ET-1 specific binding to ETB (human ETB receptor) [%]
COc1ccc([C@H]2c3ncccc3[C@@H](c3ccc4c(c3)OCO4)[C@@H]2C(=O)O)cc1 (relative stereo) [Compound 2, (5RS,6SR,7SR)-6-Carboxy-5-(3,4-methylenedioxyphenyl)-7-(4-methoxyphenyl)cyclopenteno[1,2-b]pyridine] | showed no effects to the isolated coronary artery when applied alone | remarkably shifted the concentration-response curves of endothelin-1 to the right | did not affect the maximum response | showed no effects to the isolated iliac artery when applied alone | did not affect the maximum response | remarkably shifted the concentration-response curves of endothelin-1 to the right |  |  |  | 
COc1ccc([C@H]2c3ncccc3[C@@H](c3ccc4c(c3)OCO4)[C@@H]2C(=O)O)cc1 (relative stereo) [Compound 2-enantiomer A] |  |  |  |  |  |  | 99 | 80 | 99 | 80
